Assay [1] addresses T1, intracellular phosphorylation of EGFR in NCI-H1975 cell line that harbors the EGFR L858R T790M mutations (Homo sapiens, UniProt P00533, L858R/T790M).
T1 construct: NCI-H1975 cell line that harbors the EGFR L858R T790M mutations (ATCC, CRL-5908); host or cells: NCI-H1975
The assay is described as follows: NCI-H1975 pEGFR AlphaLISA assay. It is filed as cell-based. The following applies: NCI-H1975 cells (EGFR L858R T790M), p-EGFR (Tyr1068), 4-5 hours incubation; read-out: Ext pEGFR H1975 GMean IC50 (nM) Protocol: @Pharmaron AlphaLISA (Num). The procedure:
On the next day, the test compounds and DMSO control were added into H1975 cell plate followed by incubation at 37C/5% CO2 for 4-5 hours. […] Then 5 μL of a donor bead mix was added to each well followed by overnight incubation at room temperature in dark. On the next day, the plate was read at a compatible plate reader to obtain pEGFR signal. Percent of pEGFR inhibition was plotted against log concentration of compounds to generate IC50 values.
For orientation: Alpha assays give light when donor and acceptor beads are brought close together.

The next assay has as its target T2, EGFR (L858R T790M C797S) (Homo sapiens, UniProt P00533, C797S/L858R/T790M).
T2 construct: purchased SignalChem E10-122VG
The assay is described as follows: Biochemical EGFR inhibition assay (Caliper mobility shift), EGFR LRTMCS. The conditions noted are these: LRTMCS (PH) IC50 (nM) @ 1 mM ATP (Num), EGFR LRTMCS mutant. In outline:
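Kinase reactions at 25 °C run to 10–20% peptide phosphorylation, stopped with 35 mM EDTA. Phosphorylated product and substrate separated electrophoretically by mobility shift. Apparent IC50 from percent activity versus log compound concentration.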

Molecules are shown by their SMILES.

The values that follow come from US20240382483A1, “HETEROCYCLIC EGFR INHIBITORS FOR USE IN THE TREATMENT OF CANCER” (Blueprint Medicines Corporation, priority 2021, published 2024).

T1 sequence (P00533 25-1210 T790M/L858R): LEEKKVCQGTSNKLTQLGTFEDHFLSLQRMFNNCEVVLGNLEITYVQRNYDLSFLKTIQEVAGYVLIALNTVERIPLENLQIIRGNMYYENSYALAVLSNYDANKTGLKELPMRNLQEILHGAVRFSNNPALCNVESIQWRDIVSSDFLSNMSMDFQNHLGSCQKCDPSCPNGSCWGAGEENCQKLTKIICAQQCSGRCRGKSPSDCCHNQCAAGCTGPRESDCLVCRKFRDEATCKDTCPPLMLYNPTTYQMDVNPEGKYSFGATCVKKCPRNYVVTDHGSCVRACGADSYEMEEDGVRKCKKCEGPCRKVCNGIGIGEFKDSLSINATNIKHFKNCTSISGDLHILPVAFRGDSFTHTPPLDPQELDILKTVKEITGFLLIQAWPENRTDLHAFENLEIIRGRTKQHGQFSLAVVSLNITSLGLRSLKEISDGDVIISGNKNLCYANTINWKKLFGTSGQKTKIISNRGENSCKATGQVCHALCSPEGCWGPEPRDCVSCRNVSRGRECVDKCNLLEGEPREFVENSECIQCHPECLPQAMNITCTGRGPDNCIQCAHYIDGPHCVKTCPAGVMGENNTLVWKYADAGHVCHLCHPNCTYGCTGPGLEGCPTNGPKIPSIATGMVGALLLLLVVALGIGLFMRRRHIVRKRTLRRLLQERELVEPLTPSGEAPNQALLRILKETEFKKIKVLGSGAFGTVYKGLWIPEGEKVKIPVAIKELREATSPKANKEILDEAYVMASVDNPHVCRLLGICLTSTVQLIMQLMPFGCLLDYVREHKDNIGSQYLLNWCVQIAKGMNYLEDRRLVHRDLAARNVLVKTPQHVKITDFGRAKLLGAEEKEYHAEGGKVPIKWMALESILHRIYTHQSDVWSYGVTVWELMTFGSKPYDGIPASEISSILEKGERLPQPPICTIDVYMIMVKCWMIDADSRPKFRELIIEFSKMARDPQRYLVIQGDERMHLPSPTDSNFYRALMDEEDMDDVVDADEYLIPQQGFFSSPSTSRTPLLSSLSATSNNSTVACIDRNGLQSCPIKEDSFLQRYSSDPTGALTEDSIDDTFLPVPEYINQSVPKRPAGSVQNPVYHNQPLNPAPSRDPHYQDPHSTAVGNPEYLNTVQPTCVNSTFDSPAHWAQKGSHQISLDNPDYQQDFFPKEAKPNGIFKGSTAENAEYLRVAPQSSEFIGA
T2 sequence (P00533 25-1210 T790M/C797S/L858R): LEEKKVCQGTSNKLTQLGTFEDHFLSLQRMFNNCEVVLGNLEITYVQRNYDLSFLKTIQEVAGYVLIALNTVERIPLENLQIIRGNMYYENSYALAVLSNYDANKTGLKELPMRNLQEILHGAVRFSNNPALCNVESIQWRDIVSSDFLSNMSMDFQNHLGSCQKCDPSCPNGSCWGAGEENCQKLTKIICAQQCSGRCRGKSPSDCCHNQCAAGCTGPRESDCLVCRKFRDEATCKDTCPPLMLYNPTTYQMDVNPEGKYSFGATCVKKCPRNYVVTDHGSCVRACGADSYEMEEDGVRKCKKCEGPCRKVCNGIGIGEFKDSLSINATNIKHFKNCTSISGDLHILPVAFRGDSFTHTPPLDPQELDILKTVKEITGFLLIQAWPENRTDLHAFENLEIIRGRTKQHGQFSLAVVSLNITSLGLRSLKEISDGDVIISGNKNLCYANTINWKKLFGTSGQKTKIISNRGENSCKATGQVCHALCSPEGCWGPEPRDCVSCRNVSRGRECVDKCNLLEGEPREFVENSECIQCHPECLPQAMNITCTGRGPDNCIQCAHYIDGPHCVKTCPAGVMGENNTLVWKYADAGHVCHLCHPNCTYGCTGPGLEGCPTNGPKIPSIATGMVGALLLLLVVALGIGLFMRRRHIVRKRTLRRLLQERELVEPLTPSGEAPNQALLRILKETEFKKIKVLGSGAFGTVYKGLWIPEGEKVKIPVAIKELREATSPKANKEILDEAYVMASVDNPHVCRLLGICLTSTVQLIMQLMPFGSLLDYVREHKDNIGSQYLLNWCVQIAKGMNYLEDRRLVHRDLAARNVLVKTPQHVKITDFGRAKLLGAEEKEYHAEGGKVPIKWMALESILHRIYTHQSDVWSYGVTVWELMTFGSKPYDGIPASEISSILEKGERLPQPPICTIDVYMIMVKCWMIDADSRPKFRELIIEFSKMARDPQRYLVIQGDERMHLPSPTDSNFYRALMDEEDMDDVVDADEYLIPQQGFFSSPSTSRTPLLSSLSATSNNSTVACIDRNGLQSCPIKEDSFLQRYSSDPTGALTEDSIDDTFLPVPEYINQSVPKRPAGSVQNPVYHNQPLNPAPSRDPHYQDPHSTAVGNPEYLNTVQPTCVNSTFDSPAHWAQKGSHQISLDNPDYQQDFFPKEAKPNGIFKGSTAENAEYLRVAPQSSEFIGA

As a reminder, the IC50 is the concentration that gives 50% inhibition. With `CC(C)c1cnc(-c2ncn(C)n2)c2cnc(Nc3ccnc(N4CC[C@@H](O)[C@@](C)(F)C4)n3)cc12` [Example 15, (3S,4R)-3-fluoro-1-(4-((5-isopropyl-8-(1-methyl-1H-1,2,4-triazol-3-yl)-2,7-naphthyridin-3-yl)amino)pyrimidin-2-yl)-3-methylpiperidin-4-ol], the IC50 in assay [1] was greater than 50 nM; on EGFR (L858R T790M C797S), less than 15 nM.

Regarding `CC(C)c1cnc(-c2cnn(C(F)F)c2)c2cnc(Nc3ccnc(N4CC[C@@H](O)[C@@](C)(F)C4)n3)cc12` [Example 16, (3S,4R)-1-(4-((8-(1-(difluoromethyl)-1H-pyrazol-4-yl)-5-isopropyl-2,7-naphthyridin-3-yl)amino)pyrimidin-2-yl)-3-fluoro-3-methylpiperidin-4-ol], the IC50 in assay [1] is greater than 50 nM; at EGFR (L858R T790M C797S), 15 to 20 nM.

With `Cc1c(-c2ncc(C(C)C)c3cc(Nc4ccnc(N5CC[C@@H](O)[C@@](C)(F)C5)n4)ncc23)nnn1C` [Example 17, (3S,4R)-1-(4-((8-(1,5-dimethyl-1H-1,2,3-triazol-4-yl)-5-isopropyl-2,7-naphthyridin-3-yl)amino)pyrimidin-2-yl)-3-fluoro-3-methylpiperidin-4-ol], the results for the half-maximal inhibitory concentration (IC50) (in assay [1]; on EGFR (L858R T790M C797S)) were 10 to 20 nM and less than 15 nM, respectively.

For the compound `CC(C)c1cnc(-c2cnn(S(C)(=O)=O)c2)c2cnc(Nc3ccnc(N4CC[C@@H](O)[C@@](C)(F)C4)n3)cc12` [Example 18, (3S,4R)-3-fluoro-1-(4-((5-isopropyl-8-(1-(methylsulfonyl)-1H-pyrazol-4-yl)-2,7-naphthyridin-3-yl)amino)pyrimidin-2-yl)-3-methylpiperidin-4-ol], the IC50 in assay [1] was 30 to 50 nM; on EGFR (L858R T790M C797S) it was 15 to 20 nM.

With `CC(C)c1cnc(-c2cn(C3COC3)cn2)c2cnc(Nc3ccnc(N4CC[C@@H](O)[C@@](C)(F)C4)n3)cc12` [Example 20, (3S,4R)-3-fluoro-1-(4-((5-isopropyl-8-(1-(oxetan-3-yl)-1H-imidazol-4-yl)-2,7-naphthyridin-3-yl)amino)pyrimidin-2-yl)-3-methylpiperidin-4-ol], the IC50 in assay [1] is 30 to 50 nM; on EGFR (L858R T790M C797S), less than 15 nM.

With `CC(C)c1cnc(-c2ccn(C3COC3)n2)c2cnc(Nc3ccnc(N4CC[C@@H](O)[C@@](C)(F)C4)n3)cc12` [Example 21, (3S,4R)-3-fluoro-1-(4-((5-isopropyl-8-(1-(oxetan-3-yl)-1H-pyrazol-3-yl)-2,7-naphthyridin-3-yl)amino)pyrimidin-2-yl)-3-methylpiperidin-4-ol], the IC50 in assay [1] was greater than 50 nM; on EGFR (L858R T790M C797S), less than 15 nM.

For the compound `CC(C)c1cnc(-c2cnn(C3CN(C)C3)c2)c2cnc(Nc3ccnc(N4CC[C@@H](O)[C@@](C)(F)C4)n3)cc12` [Example 22, (3S,4R)-3-fluoro-1-(4-((5-isopropyl-8-(1-(1-methylazetidin-3-yl)-1H-pyrazol-4-yl)-2,7-naphthyridin-3-yl)amino)pyrimidin-2-yl)-3-methylpiperidin-4-ol], the IC50 is greater than 50 nM in assay [1] and 15 to 20 nM on EGFR (L858R T790M C797S).

`CC(C)c1cnc(-c2cn(C)nn2)c2cnc(Nc3ccnc(N4CCC5(CCO5)CC4)n3)cc12` [Example 23, N-(2-(1-oxa-7-azaspiro[3.5]nonan-7-yl)pyrimidin-4-yl)-5-isopropyl-8-(1-methyl-1H-1,2,3-triazol-4-yl)-2,7-naphthyridin-3-amine]: the half-inhibitory concentration (IC50) in assay [1] is greater than 50 nM; on EGFR (L858R T790M C797S), less than 15 nM.

Regarding `Cc1nc(-c2ncc(C(C)C)c3cc(Nc4ccnc(N5CC[C@@H](O)[C@@](C)(F)C5)n4)ncc23)n[nH]1` [Example 24, (3S,4R)-3-fluoro-1-(4-((5-isopropyl-8-(5-methyl-1H-1,2,4-triazol-3-yl)-2,7-naphthyridin-3-yl)amino)pyrimidin-2-yl)-3-methylpiperidin-4-ol], the IC50 was 30 to 50 nM in assay [1] and less than 15 nM at EGFR (L858R T790M C797S).
